Measurements reported in ChEMBL document CHEMBL1156829 (Proc Natl Acad Sci U S A, 2008).

What was measured:
[1] = system: Plasmodium falciparum; assay: NOVARTIS: Inhibition of Plasmodium falciparum W2 (drug-resistant) proliferation in erythrocyte-based infection assay; format: functional, organism-based; conditions: Plasmodium falciparum, W2; read-out: EC50
[2] = system: Plasmodium falciparum; assay: NOVARTIS: Inhibition of Plasmodium falciparum 3D7 (drug-susceptible) proliferation in erythrocyte-based infection assay; format: functional, organism-based; conditions: Plasmodium falciparum, 3D7
[3] = NOVARTIS: Cytotoxicity against human hepatocellular carcinoma cell line (Huh7); format: toxicity, cell-based, Huh-7; conditions: Huh7 cells (hepatocellular carcinoma cell line)

| Structure (SMILES) | EC50 [1] [µM] | EC50 [2] [µM] | CC50 [3] [µM] |
| --- | --- | --- | --- |
| Cn1ccnc1C(=O)NNc1ncc(C(F)(F)F)cc1Cl | 0.359 | 0.609 | 1.15 |
| CCc1c(C(=O)N2CCN(C(=O)CCl)C(C)C2)cnn1-c1nc(-c2ccc(Br)cc2)cs1 (stereo not drawn) | 0.481 | 0.656 | > 8.66 |
| O=C(NCCCCNC(=O)Nc1cccc(C2=NCCN2)c1)Nc1cccc(C2=NCCN2)c1 | 0.0672 | 0.203 | > 10 |
| O=C(NCCCN1CCCC1=O)c1ccc2nc(N3CCOCC3)sc2c1 | 4.69 | 7.24 | 26.8 |
| Clc1ccc(-n2cc(-c3ccccc3)c3c(N4CCC(Cc5ccccc5)CC4)ncnc32)cc1 | > 3.99 | > 10 | > 100 |
| C=CCNCc1cc(-c2cc(OC)ccc2OC)ccc1O | 0.84 | 1.1 | > 10 |
| O=c1c(-c2ccc(Cl)cc2Cl)c(C(F)(F)F)oc2c(CN3CCCCC3)c(O)ccc12 | 0.199 | 0.994 | > 100 |
| Cc1ccn2c(NC(C)(C)CC(C)(C)C)c(-c3ccccc3OC(=O)C(c3ccccc3)c3ccccc3)nc2c1 | 0.0718 | 0.746 | > 1.12 |
| Cc1cc(C)c2c(c1)-c1c(ssc1=S)C(C)(C)N2C(=O)COc1nc2ccccc2s1 | 0.169 | 0.125 | > 100 |
| C=CCSc1nc2sc3c(c2c(=O)n1-c1ccccc1)CCN(C)C3 | 0.228 | 0.632 | > 100 |
| COc1ccc(C2Nc3ccc4ccccc4c3C3=C2C(=O)CC(C)(C)C3)cc1Br (stereo not drawn) | 0.649 | 3.19 | > 100 |
| Oc1ccc(-c2ccccc2)cc1CNC1CCCCC1 | < 0.0235 | 0.982 | > 10 |
| CCN(CC)c1ccc2cc(C(C)=NNC(N)=S)c(=O)oc2c1 | 7.46 | 4.31 | > 100 |
| O=C1C(=Nc2cccc(C(F)(F)F)c2)c2ccccc2N1CN1CCc2ccccc2C1 | 3.71 | 8.38 | > 100 |
| CCOC(=O)C1=C(C)NC(=Cc2cc(C)n(-c3ccc(C)cc3)c2C)C1=O | 0.169 | 0.121 | > 100 |
| COc1ccccc1C(NC(=O)c1cc(OC)c(OC)c(OC)c1)c1cc(Cl)c2cccnc2c1O (stereo not drawn) | 1.23 | 2.2 | > 100 |
| CC(C)CC(N)C(=O)N1CCc2nc(Cc3ccc(F)cc3Cl)sc2C1 (stereo not drawn) | 0.471 | > 1.25 | > 10 |
| CCOC(=O)NN=C(C)c1ccc(C(C)=NNC(=O)OCC)cc1 | 0.747 | > 5.59 | > 100 |
| COc1cc(OC)cc(C(=O)N(C)CCCNc2ccnc3cc(Cl)ccc23)c1 | 0.116 | 0.143 | 4.7 |
| Cc1nc2ccc(NC(=O)C3CC3)cc2c(=O)n1Cc1ccc(Cl)cc1 | 1.82 | 1.17 | > 100 |
| Cc1ccn2c(NC(C)(C)CC(C)(C)C)c(-c3ccccc3OC(=O)c3ccc(C(F)(F)F)cc3)nc2c1 | 0.0199 | 0.847 | > 10 |
| Cc1ccc2[nH]c(/C(C#N)=C/c3cn(Cc4ccc(Cl)cc4Cl)nc3-c3ccccc3)nc2c1 | 1.88 | > 1.01 | > 10 |
| COC(=O)CC(NS(=O)(=O)c1ccc(OC)cc1)c1ccc2c(c1)OCO2 (stereo not drawn) | < 0.0234 | 1.46 | > 10.3 |
| COc1cccc2c(C)cc(NCc3ccccc3Cl)nc12 | > 0.985 | > 1.25 | > 10 |
| COc1cccc(-c2ccc(O)c(CN(C)C3CCCCC3)c2)n1 | 0.0903 | 1.15 | > 13 |
| COC(=O)c1sc2nc(CN3CCCC(C)C3)ccc2c1NC(=O)c1ccc(C)s1 (stereo not drawn) | 1.56 | 1.81 | > 100 |

| Structure (SMILES) | EC50 [1] [µM] | EC50 [2] [µM] | CC50 [3] [µM] |
| --- | --- | --- | --- |
| CCCC[n+]1c(-c2ccccc2)cc(-c2ccccc2)cc1-c1ccccc1 | 0.467 | 0.824 | 12.9 |
| C[C@@H]1CCC[C@@H](C[C@H]2Cc3cc(O)cc(O)c3C(=O)O2)O1 | 0.0927 | 0.0454 | > 100 |
| CCOC(=O)c1c(NC(=O)c2ccccc2)sc2c(O)c(CN(CC)CC)ccc12 | 0.00844 | 0.267 | > 46.8 |
| COc1ccc(Cn2c(C)nc3cc(NC(=O)Nc4ccccc4)c(C)nc32)cc1 | 0.11 | 0.373 | > 100 |
| c1cncc(-c2cc(NCCCn3ccnc3)nc(-c3ccncc3)n2)c1 | 0.956 | 1.09 | > 10 |
| Cc1csc(NC(=O)C2c3ccccc3C(=O)N(CC(C)C)C2c2cccs2)n1 (stereo not drawn) | 0.785 | 0.611 | > 10 |
| CCC(C)Nc1nc(NC(C)CC)nc(N2CCCCCC2)n1 (stereo not drawn) | 0.382 | 0.479 | 14.7 |
| Clc1cc(N2CCCCC2)c(Cl)nn1 | > 0.892 | > 1.25 | > 10 |
| O=C(C1CC1)n1cc(C(=O)C(F)(F)F)c2ccccc21 | > 1.22 | 1.37 | > 10 |
| CC(C=NNC(N)=S)=NNC(N)=S | 0.00723 | 0.00894 | > 100 |
| COC(=O)c1ccc(C2C3=C(CC(c4ccc(OC)cc4)CC3=O)Nc3ccccc3N2C(=O)c2ccccc2)cc1 (stereo not drawn) | 0.368 | 0.427 | > 100 |
| CC(C)(C)CC(C)(C)c1ccc(OCC(=O)NN=C2C(=O)Nc3ccccc32)c([N+](=O)[O-])c1 | 0.927 | > 1 | > 10 |
| O=C(NC1CC1)C1CCN(c2cccc3c2C(=O)N(C2CCCCCCC2)C3=O)CC1 | 0.169 | 0.203 | > 51.8 |
| CCCn1c(-c2cccc(Br)c2)nc2ccccc21 | > 1.22 | > 1.14 | > 10 |
| CC(C)(C)CC(C)(C)Nc1c(-c2ccccc2OC(=O)c2ccc(Cl)c(Cl)c2)nc2ccccn12 | 0.0723 | 0.92 | > 10 |
| O=C(CCl)NCCOc1ccc(Cl)cc1Cl | 0.511 | 0.538 | 13 |
| N#Cc1c2c(c(N3CCN(Cc4ccc(F)cc4)CC3)n3c1nc1ccccc13)CCC2 | 0.0377 | 0.0198 | > 100 |
| COc1ccc(-n2nc(C(C)(C)C)cc2NC(=O)CN(C(=O)c2ccc(C(C)(C)C)cc2)C(C)C)cc1 | 1.85 | 1.68 | 34.6 |
| CC[n+]1c(/C=C/c2ccc(C)cc2)ccc2ccccc21 | 0.119 | 0.0974 | > 10 |
| COc1ccc(C2=CC(=Cc3cccc(OC)c3OC)C(=O)O2)cc1OC | 0.332 | 4.76 | > 100 |
| N=C1NC(=O)C(=CC=Cc2ccc([N+](=O)[O-])o2)S1 | 1.47 | 0.707 | 7.21 |
| CCCCN(C)C(=O)CSc1nc(NCc2ccccc2)c2ccccc2n1 | 0.361 | > 1.65 | > 10 |
| CCc1cccc(NC(=O)CCCn2c(=O)c3cccn3c3ccccc32)c1 | 0.826 | > 1.56 | > 10 |
| COc1ccc(C(NC(=O)c2cccnc2)c2cc(Cl)c3cccnc3c2O)cc1 (stereo not drawn) | 0.528 | 0.945 | > 100 |
| COc1cc2nc(N3CCN(c4nc(N)c5cc(OC)c(OC)cc5n4)CC3)nc(N)c2cc1OC | 0.257 | 0.0911 | 14.7 |
